Reference: patent publication US4479945A, “Inter-m-phenylene-prostacyclin analogues and use thereof in inhibiting blood platelet aggregation” (Chinoin Gyogyszer Es Vegyeszeti Termekek Gyara R.T., priority 1981, dated 1984)
Values after ≈ are worked out from the molar mass of the structure shown. “Also recorded” adds a separate entry of the source.

Tests used:
[1] = test system: blood pressure; assay: Antihypertensive activity (blood pressure reduction, ED25) on narcotized rats; format: in vivo, rat; settings: for relative anti-hypertensive efficiency ED25 PGI2 /ED25 test-compound: molar dose for 25 mmHg blood pressure reduction, narcotized rats, sodium salts; for hypotensive / antihypertensive side effect (in words): compared with PGI2 or compounds of the state of art
Description: The antihypertensive activity was determined on narcotized rats. From the data of the blood pressure tests the molar dose /ED25 / inducing 25 mmHg /3.33 kPa/ blood pressure reduction was calculated.

[2] = test system: thrombocyte aggregation; settings: literature; cited from earlier work
[3] = test system: coronary arteries of the heart; peripheral circulation vessels; settings: literature; cited from earlier work
[4] = test system: thrombocyte aggregation; assay: Thrombocyte (blood platelet) aggregation, Payton aggregometer, induced with 2 μM ADP, plasma enriched in thrombocytes (PRP); format: cell-based, human; settings: for antiaggregatory activity (in words): compared with PGI2 or compounds of the state of art
Description: The thrombocyte aggregation was measured with a Payton type aggregometer of two channels in 0.5 ml. end volume. […] The cubital venal blood was mixed with a 3.8% Na-citrate solution at a ratio of 9:1 and in order to obtain a plasma enriched in thrombocytes (PRP) blood was centrifuged for 5 minutes at 230 g, while plasma poor in thrombocytes was obtained after 10 minutes of centrifuging. The blood platelet number of the plasma was adjusted to […]. The tests were performed within 1 hour after the blood taking. The prostacycline sensitivity of each plasma was controlled before measuring the test substances. IC50 value of prostacycline on plasma enriched in thrombocytes: 0.6-1.0 ng/ml.
Thrombocyte aggregation was induced with 2 μM ADP. The test compounds were dissolved in 0.1M tris-HCl buffer of pH=7.8 and the temperature was maintained at 0° to 4° C.
The compounds were tested repeatedly after some time and were kept in solution at 0°-4° C. IC50 values were calculated graphically.

Row | SMILES | relative anti-hypertensive efficiency ED25 PGI2 /ED25 test-compound ([1]; related to PGI2) | antiaggregatory activity (in words) [4] | hypotensive / antihypertensive side effect (in words) [1] | further results
1 | CCCCCC(O)C=CC1C(O)CC2OC(=Cc3cccc(C(=O)O)c3)CC21 (centres unmarked) [45842/A, 5(Z)-2,3,4-trinor-1,5-inter-m-phenylene-PGI2] | 1/10 |  |  | 
2 | CCCCC[C@H](O)/C=C/[C@@H]1[C@H]2C/C(=C/CCCC(=O)O)O[C@H]2C[C@H]1O [PGI2] | 1/1 |  |  | antiaggregatory and desaggregatory activity (in words) [2]: most active antiaggregatory and desaggregatory agent; further physiological activities (in words) [3]: relaxation of the coronary arteries of the heart and dilatation of the peripheral circulation vessels; IC50 ([4]; Homo sapiens, Platelet, control of prostacycline sensitivity of each plasma): 0.6 to 1 ng/mL (≈ 1.7 to 2.84 nM); relative anti-aggregatory efficiency IC50 PGI2 /IC50 test-compound ([4]; related to PGI2, 2 μM ADP, human PRP, sodium salts): 1/1
3 | CCCCCCC(O)C#CC1C(O)CC2OC(=Cc3cccc(C(=O)O)c3)CC21 (centres unmarked) [compound "A", 5(Z)-2,3,4-trinor-1,5-inter-m-phenylene-13,14-didehydro-20-methyl-PGI2] |  | better activity | less side effects | 
4 | CCCCCCCC(O)C#CC1C(O)CC2OC(=Cc3cccc(C(=O)O)c3)CC21 (centres unmarked) [compound "B", 5(Z)-2,3,4-trinor-inter-m-phenylene-13,14-didehydro-20-ethyl-PGI2] |  | better activity; also recorded: substantially the same as that of PGI2 | less side effects | antihypertensive activity as part of the activity of PGI2 ([1]; related to PGI2): about 2/100
